Data taken from patent US10759790B2, “Heterocyclic constrained tricyclic sulfonamides as anti-cancer agents” (ICAHN SCHOOL OF MEDICINE AT MOUNT SINAI, priority 2015, dated 2020).
pIC50: −log10 of the molar value. Each block holds one compound with its values, some of them ahead of it.

What was measured:
[1] = system: lung cancer cell line H358; assay: In vivo cancer model: subcutaneous H358 xenograft, tumor volume (Example 2a); set-up: species or system BALB/c nu/nu mice; conditions: 5 mg/kg BID oral gavage
Method: (§1) To assess the in vivo effects of the compounds, subcutaneous xenograft of lung cancer cell line H358 was generated. Cells (5×10^6) were injected into the right flank of 6- to 8-week-old male BALB/c nu/nu mice (Charles River, Wilmington, Mass.). Tumor volume was assessed twice a week by caliper measurement. Mice were randomized to treatment groups based on initial tumor volume average of 200 mm^3 per group. Mice were dosed by oral gavage with 5 mg/kg Example 2a BID. Mouse tumors were measured twice a week for the duration of the study. Mouse body weights were recorded weekly and percentage of mice body weights during treatment was calculated as: weight at each time point/initial weight×100.

[2] = In vivo cancer model: body weights and signs of toxicity (Example 2a); set-up: species or system BALB/c nu/nu mice; conditions: 5 mg/kg BID oral gavage
Method: as §1

[3] = system: H1650 lung cancer cells; assay: Cell viability assay (MTT, IC50 determination); format: cell-based; conditions: H1650 lung cancer cells, MTT; for pIC50: Homo sapiens, NCI-H1650, 48 hours after drug treatment, read-out: H1650 cell viability IC50; for H1650 cell viability, % at 40 uM: 48 hours
Method: Cell viability assays were performed according to Denizot, F. and R. Lang, Journal of Immunological Methods, 1986. 89(22): p. 271-277. H1650 lung cancer cells were plated at 150,000 cells per well in a 12 well plate. Twenty-four hours after plating, cells were treated as described with increasing concentrations of drug and control. Forty-eight hours after drug treatment, cells were treated with 100 μL of 3-(4,5-Dimethylthiazol-2-yl)-2,5-diphenyltetrazolium bromide (MTT) and incubated for 2 hours at 37 C. The MTT solution was subsequently replaced with 300 μL of n-propyl alcohol and re-aliquoted to a 96 well plate. Spectrophotometric analysis of each solution was performed using a 96 well plate reader at 600 nm in triplicate.

- pIC50 [3]: 5.00
Structure (SMILES): O=S(=O)(N[C@@H]1COC[C@H](n2c3ccccc3c3ccccc32)[C@H]1O)c1ccc(OC(F)(F)F)cc1 [Example 50, N-((3R,4R,5S)-5-(9H-carbazol-9-yl)-4-hydroxytetrahydro-2H-pyran-3-yl)-4-(trifluoromethoxy)benzenesulfonamide]

- pIC50 [3]: 5.30
Structure (SMILES): Cc1ccc2c(c1)c1cc(C)ccc1n2[C@H]1COC[C@@H](NS(=O)(=O)c2ccc(OC(F)(F)F)cc2)[C@@H]1O [Example 51, N-((3R,4R,5S)-5-(3,6-dimethyl-9H-carbazol-9-yl)-4-hydroxytetrahydro-2H-pyran-3-yl)-4-(trifluoromethoxy)benzenesulfonamide]

- pIC50 [3]: 5.30
Structure (SMILES): CC(C)(C)OC(=O)N1C[C@@H](NS(=O)(=O)c2ccc(OC(F)(F)F)cc2)[C@H](O)[C@@H](n2c3ccccc3c3ccccc32)C1 [Example 52a, (3S,4R,5R)-tert-butyl 3-(9H-carbazol-9-yl)-4-hydroxy-5-(4-(trifluoromethoxy)phenylsulfonamido)piperidine-1-carboxylate]

- pIC50 [3]: 5.30
Structure (SMILES): CC(C)(C)OC(=O)N1C[C@H](NS(=O)(=O)c2ccc(OC(F)(F)F)cc2)[C@@H](O)[C@H](n2c3ccccc3c3ccccc32)C1 [Example 52b, (3R,4S,5S)-tert-butyl 3-(9H-carbazol-9-yl)-4-hydroxy-5-(4-(trifluoromethoxy)phenylsulfonamido)piperidine-1-carboxylate]

- pIC50 [3]: 5.30
Structure (SMILES): CC(C)(C)c1ccc2c(c1)c1ccccc1n2[C@H]1CNC[C@@H](NS(=O)(=O)c2ccc(OC(F)(F)F)cc2)[C@@H]1O [Example 53a, N-((3R,4R,5S)-5-(3-(tert-butyl)-9H-carbazol-9-yl)-4-hydroxypiperidin-3-yl)-4-(trifluoromethoxy)benzenesulfonamide]

- pIC50 [3]: 5.30
Structure (SMILES): CC(C)(C)OC(=O)N1C[C@@H](NS(=O)(=O)c2ccc(OC(F)(F)F)cc2)[C@H](O)[C@@H](n2c3ccc(F)cc3c3cc(F)ccc32)C1 [Example 54, (3S,4R,5R)-tert-butyl 3-(3,6-difluoro-9H-carbazol-9-yl)-4-hydroxy-5-(4-(trifluoromethoxy)phenylsulfonamido)piperidine-1-carboxylate]

- pIC50 [3]: 5.30
Structure (SMILES): O=S(=O)(N[C@@H]1CNC[C@H](n2c3ccc(F)cc3c3cc(F)ccc32)[C@H]1O)c1ccc(OC(F)(F)F)cc1 [Example 55, N-((3R,4R,5S)-5-(3,6-difluoro-9H-carbazol-9-yl)-4-hydroxypiperidin-3-yl)-4-(trifluoromethoxy)benzenesulfonamide]

- pIC50 [3]: 5.30
Structure (SMILES): CC(C)(C)OC(=O)N1C[C@@H](NS(=O)(=O)c2ccc(OC(F)(F)F)cc2)[C@H](O)[C@@H](n2c3ccc(Cl)cc3c3cc(Cl)ccc32)C1 [Example 56, (3S,4R,5R)-tert-butyl 3-(3,6-dichloro-9H-carbazol-9-yl)-4-hydroxy-5-(4-(trifluoromethoxy)phenylsulfonamido)piperidine-1-carboxylate]

- pIC50 [3]: 5.30
Structure (SMILES): O=S(=O)(N[C@@H]1CNC[C@H](N2c3ccc(C(F)(F)F)cc3Oc3cc(C(F)(F)F)ccc32)[C@H]1O)c1ccc(OC(F)(F)F)cc1 [Example 58, N-((3R,4R,5S)-5-(3,7-bis(trifluoromethyl)-10H-phenoxazin-10-yl)-4-hydroxypiperidin-3-yl)-4-(trifluoromethoxy)benzenesulfonamide]

More lines, now with the values behind:

Structure (SMILES): O=S(=O)(N[C@@H]1COC[C@H](N2c3ccccc3Oc3ccccc32)[C@H]1O)c1ccc(OC(F)(F)F)cc1 [Example 2a, N-((3R,4R,5S)-4-hydroxy-5-(10H-phenoxazin-10-yl)tetrahydro-2H-pyran-3-yl)-4-(trifluoromethoxy)benzenesulfonamide]
- % T/C (mean tumor volume) ([1]; treatment day 17): 28.82%
- % T/C (median tumor volume) ([1]; treatment day 17): 25.82%
- Inhibition of tumor growth versus vehicle control ([1]; treatment day 17): statistically significant inhibition of tumor (T) growth versus vehicle control (C)
- Mean Tumor Volume (T) ([1]; treatment day 17, in mm³): 208.64
- Median Tumor Volume (T) ([1]; treatment day 17, in mm³): 191.78
- Signs of toxicity (mucous diarrhea, abdominal stiffness and weight loss) [2]: no adverse signs were observed
- Toxicity as judged from animal body weights versus vehicle control [2]: No statistically significant toxicity was observed
- % T/C (mean body weight) ([2]; H358 xenograft mice): 96.36%
- % T/C (median body weight) ([2]; H358 xenograft mice): 96.92%
- Mean body weight ([2]; H358 xenograft mice): 30.21 g
- Median body weight ([2]; H358 xenograft mice): 29.95 g
- pIC50 [3]: 4.82

Structure (SMILES): CC(C)(C)OC(=O)N1C[C@@H](NS(=O)(=O)c2ccc(OC(F)(F)F)cc2)[C@H](O)[C@@H](N2c3ccc(C(F)(F)F)cc3Oc3cc(C(F)(F)F)ccc32)C1 [Example 57, (3S,4R,5R)-tert-butyl 3-(3,7-bis(trifluoromethyl)-10H-phenoxazin-10-yl)-4-hydroxy-5-(4-(trifluoromethoxy)phenylsulfonamido)piperidine-1-carboxylate]
- pIC50 [3]: 5.30

Structure (SMILES): O=S(=O)(N[C@@H]1COC[C@H](N2c3ccccc3Oc3ccccc32)[C@H]1O)c1ccccc1 [Example 60, N-((3R,4R,5S)-4-hydroxy-5-(10H-phenoxazin-10-yl)tetrahydro-2H-pyran-3-yl)benzenesulfonamide]
- H1650 cell viability, % at 40 uM [3]: 37% at 40 uM

Structure (SMILES): O=S(=O)(N[C@@H]1COC[C@H](N2c3ccccc3Oc3ccccc32)[C@H]1O)c1ccc(Cl)cc1 [Example 61, 4-chloro-N-((3R,4R,5S)-4-hydroxy-5-(10H-phenoxazin-10-yl)tetrahydro-2H-pyran-3-yl)benzenesulfonamide]
- pIC50 [3]: 5.30

Structure (SMILES): O=S(=O)(N[C@@H]1COC[C@H](N2c3ccccc3Oc3ccccc32)[C@H]1O)c1ccc(Cl)s1 [Example 62, 5-chloro-N-((3R,4R,5S)-4-hydroxy-5-(10H-phenoxazin-10-yl)tetrahydro-2H-pyran-3-yl)thiophene-2-sulfonamide]
- pIC50 [3]: 4.82

Structure (SMILES): O=S(=O)(N[C@@H]1COC[C@H](N2c3ccccc3Oc3ccccc32)[C@H]1O)c1ccc(C(F)(F)F)nc1 [Example 63, N-((3R,4R,5S)-4-hydroxy-5-(10H-phenoxazin-10-yl)tetrahydro-2H-pyran-3-yl)-6-(trifluoromethyl)pyridine-3-sulfonamide]
- pIC50 [3]: 4.70

Structure (SMILES): O=S(=O)(N[C@@H]1COC[C@H](N2c3ccccc3Oc3ccccc32)[C@H]1O)c1cccc(Cl)c1 [Example 64, 3-chloro-N-((3R,4R,5S)-4-hydroxy-5-(10H-phenoxazin-10-yl)tetrahydro-2H-pyran-3-yl)benzenesulfonamide]
- pIC50 [3]: 4.82

Structure (SMILES): O=S(=O)(N[C@@H]1COC[C@H](N2c3ccccc3Oc3ccccc32)[C@H]1O)c1ccccc1Cl [Example 65, 2-chloro-N-((3R,4R,5S)-4-hydroxy-5-(10H-phenoxazin-10-yl)tetrahydro-2H-pyran-3-yl)benzenesulfonamide]
- pIC50 [3]: 4.70

Structure (SMILES): CC(C)(C)OC(=O)Nc1ccc(S(=O)(=O)N[C@@H]2COC[C@H](N3c4ccccc4Oc4ccccc43)[C@H]2O)cc1 [Example 66, tert-butyl (4-(N-((3R,4R,5S)-4-hydroxy-5-(10H-phenoxazin-10-yl)tetrahydro-2H-pyran-3-yl)sulfamoyl)phenyl)carbamate]
- pIC50 [3]: 5.30

Structure (SMILES): Nc1ccc(S(=O)(=O)N[C@@H]2COC[C@H](N3c4ccccc4Oc4ccccc43)[C@H]2O)cc1 [Example 67, 4-amino-N-((3R,4R,5S)-4-hydroxy-5-(10H-phenoxazin-10-yl)tetrahydro-2H-pyran-3-yl)benzenesulfonamide]
- H1650 cell viability, % at 40 uM [3]: 56% at 40 uM

Structure (SMILES): CC(C)(C)OC(=O)Nc1cccc(S(=O)(=O)N[C@@H]2COC[C@H](N3c4ccccc4Oc4ccccc43)[C@H]2O)c1 [Example 68, tert-butyl (3-(N-((3R,4R,5S)-4-hydroxy-5-(10H-phenoxazin-10-yl)tetrahydro-2H-pyran-3-yl)sulfamoyl)phenyl)carbamate]
- pIC50 [3]: 5.30

Structure (SMILES): Nc1cccc(S(=O)(=O)N[C@@H]2COC[C@H](N3c4ccccc4Oc4ccccc43)[C@H]2O)c1 [Example 69, 3-amino-N-((3R,4R,5S)-4-hydroxy-5-(10H-phenoxazin-10-yl)tetrahydro-2H-pyran-3-yl)benzenesulfonamide]
- H1650 cell viability, % at 40 uM [3]: 54% at 40 uM
